# Molecular target: T1, CBL-B (Homo sapiens, UniProt Q13191)
# T1 construct: GST
# Assay: CBL-B TR-FRET IC50 screening (E1/E2 ubiquitination, Biotin-Ubiquitin, Anti GST-Tb donor / Streptavidin-d2 acceptor)
# Type: biochemical
# Conditions: CBL-B 10 nM final; 11-point titration from 100 uM; binned A-F; read-out: CBL-B TR-FRET activity IC50
# T1 sequence (Q13191 whole entry): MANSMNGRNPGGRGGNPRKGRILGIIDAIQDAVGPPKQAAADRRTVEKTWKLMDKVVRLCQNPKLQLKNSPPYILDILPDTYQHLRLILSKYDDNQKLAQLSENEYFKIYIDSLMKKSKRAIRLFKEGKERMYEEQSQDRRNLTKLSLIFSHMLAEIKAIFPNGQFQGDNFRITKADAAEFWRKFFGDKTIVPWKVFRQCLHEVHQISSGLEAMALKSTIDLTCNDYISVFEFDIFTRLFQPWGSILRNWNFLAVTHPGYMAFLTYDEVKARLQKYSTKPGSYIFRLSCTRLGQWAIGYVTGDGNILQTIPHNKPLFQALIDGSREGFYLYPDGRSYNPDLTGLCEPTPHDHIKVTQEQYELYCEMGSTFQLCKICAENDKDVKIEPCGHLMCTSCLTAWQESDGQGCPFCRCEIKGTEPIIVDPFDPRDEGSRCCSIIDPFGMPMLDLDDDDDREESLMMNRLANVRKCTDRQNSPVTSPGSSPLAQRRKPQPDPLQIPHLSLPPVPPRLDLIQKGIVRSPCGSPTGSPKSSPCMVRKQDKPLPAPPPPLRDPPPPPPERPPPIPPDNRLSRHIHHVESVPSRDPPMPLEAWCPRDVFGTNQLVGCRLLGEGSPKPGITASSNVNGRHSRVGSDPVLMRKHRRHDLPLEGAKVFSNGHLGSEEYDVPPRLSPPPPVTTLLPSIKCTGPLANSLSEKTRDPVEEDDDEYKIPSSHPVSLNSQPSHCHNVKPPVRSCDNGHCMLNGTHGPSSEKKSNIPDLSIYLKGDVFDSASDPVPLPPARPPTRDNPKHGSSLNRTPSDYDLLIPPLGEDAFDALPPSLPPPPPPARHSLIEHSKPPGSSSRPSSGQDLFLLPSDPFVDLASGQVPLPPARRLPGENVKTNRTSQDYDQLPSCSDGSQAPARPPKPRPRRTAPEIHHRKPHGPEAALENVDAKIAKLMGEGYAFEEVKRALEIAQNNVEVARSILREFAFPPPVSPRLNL
row,SMILES,IC50 [µM]
1,"C[C@@H]1CCCCN(Cc2cc(C(F)(F)F)c3cn(-c4cccc([C@H](c5nncn5C)C5CCC5)c4)c(=O)n3c2)C1 (single isomer, unassigned) [Compound 274]",< 0.1
2,"CO[C@H]1CCCN(Cc2cc(C(F)(F)F)c3cn(-c4cccc([C@H](c5nncn5C)C5CCC5)c4)c(=O)n3c2)CC1 (single isomer, unassigned) [Compound 263]",< 0.1
3,C[C@@H]1CN(Cc2cc(C(F)(F)F)c3cn(-c4cccc([C@H](c5nncn5C)C5CCC5)c4)c(=O)n3c2)CCS1 [Compound 290],< 0.1
4,CO[C@H]1CCCN(Cc2cc(C(F)(F)F)c3cn(-c4cccc(C5(Cc6nncn6C)COC5)c4)c(=O)n3c2)C1 [Compound 123],< 0.1
5,C[C@H](c1cc(C(F)(F)F)c2cn(-c3cccc(C4(Cc5nncn5C)COC4)c3)c(=O)n2c1)N1CCC(C)(F)CC1 [Compound 42],< 0.1
6,C[C@H]1CCCN(Cc2cc(C(F)(F)F)c3cn(-c4cccc(OCc5nncn5C)c4)c(=O)n3c2)C1 [Compound 200],> 10
7,C[C@@H]1CN(Cc2cc(C(F)(F)F)c3cn(-c4cccc([C@H](c5nncs5)C5CCC5)c4)c(=O)n3c2)CCO1 [Compound 291],> 10
8,C[C@@H]1CCCCN1Cc1cc(C(F)(F)F)c2cn(-c3cccc([C@H](c4nncn4C)C4CCC4)c3)c(=O)n2c1 [Compound 363_P2],< 0.1
9,C[C@H]1CCCN(Cc2cc(C(F)(F)F)c3cn(-c4cccc([C@H](CC5CC5)c5nncn5C)c4)c(=O)n3c2)C1 [Compound 332_P1],> 10
10,Cn1cnnc1[C@@H](c1cccc(-n2cc3c(C(F)(F)F)cc(CN4CC5(CCC5)C4)cn3c2=O)c1)C1CCC1 [Compound 286],< 0.1
11,COC(=O)N1CCN(Cc2cc(C(F)(F)F)c3cn(-c4cccc([C@@H](c5nncn5C)C5CCC5)c4)c(=O)n3c2)CC1 [Compound 351_P1],1 to 3
12,CN1CCCC(c2cc(C(F)(F)F)c3cn(-c4cccc(C5(Cc6nncn6C)COC5)c4)c(=O)n3c2)C1 (centres unmarked) [Compound 84],> 10
13,"CC(c1cc(C(F)(F)F)c2cn(-c3cccc(C4(Cc5nncn5C)COC4)c3)c(=O)n2c1)N1CCO[C@H](C)C1 (single isomer, unassigned) [Compound 156]",< 0.1
14,"Cn1cnnc1[C@H](c1cccc(-n2cc3c(C(F)(F)F)cc(CN4CCC5(CC5)C4)cn3c2=O)c1)C1CCC1 (single isomer, unassigned) [Compound 162]",1 to 3
15,Cc1c[nH]nc1[C@@H](c1cccc(-n2cc3c(C(F)(F)F)cc(CN4CCC[C@H](C)C4)cn3c2=O)c1)C1CCC1 [Compound 219],< 0.1
16,C[C@@H](Sc1nncn1C)c1cccc(-n2cc3c(C(F)(F)F)cccn3c2=O)c1 [Compound 5],> 10

row,SMILES,IC50 [µM]
1,"C[C@H]1CCCN(Cc2cc(C(F)(F)F)c3cn(-c4cccc([C@H](c5nccs5)C5CCC5)c4)c(=O)n3c2)C1 (single isomer, unassigned) [Compound 306]",> 10
2,C[C@H]1CCCN(Cc2cc(C(F)(F)F)c3cn(-c4cccc(C5(c6nncn6C)CCC5)c4)c(=O)n3c2)C1 [Compound 341],< 0.1
3,CC1CCCN(Cc2cc(C(F)(F)F)c3cn(-c4cccc([C@H](c5nncn5C)C5CCC5)c4)c(=O)n3c2)CC1 (some centres unmarked) [Compound 350],0.1 to 0.3
4,Cn1cnnc1C1(c2cccc(-n3cc4c(C(F)(F)F)cc(CN5CC6(CC6)C5)cn4c3=O)c2)CC2(CC2)C1 [Compound 114],< 0.1
5,"Cn1cnnc1[C@@H](c1cccc(-n2cc3c(C(F)(F)F)cc(CN4CC[C@@H](C(F)(F)F)C4)cn3c2=O)c1)C1CCC1 (single isomer, unassigned) [Compound 285]",0.1 to 0.3
6,CC(=O)c1cc(C(F)(F)F)c2cn(-c3cccc(C4(Cc5nncn5C)COC4)c3)c(=O)n2c1 [Compound 19],1 to 3
7,C[C@H]1CCCN(Cc2cc(C(F)(F)F)c3cn(-c4cccc([C@H](c5nncn5C)C5COC5)c4)c(=O)n3c2)C1 [Compound 140],< 0.1
8,C[C@H]1CCCCN1Cc1cc(C(F)(F)F)c2cn(-c3cccc([C@@H](c4nncn4C)C4CCC4)c3)c(=O)n2c1 [Compound 362_P1],< 0.1
9,Cn1cnnc1[C@H](c1cccc(-n2cc3c(C(F)(F)F)cc(CN4CC[C@H](F)C4)cn3c2=O)c1)C1CCC1 [Compound 158],3 to 10
10,CC(=O)N1CC(Cc2nncn2C)(c2cccc(-n3cc4c(C(F)(F)F)cccn4c3=O)c2)C1 [Compound 143],> 10
11,Cn1cnnc1[C@@H](c1cccc(-n2cc3c(C(F)(F)F)cc(CN4CCc5ncsc5C4)cn3c2=O)c1)C1COC1 [Compound 345],< 0.1
12,COc1cc(-n2cc3c(C(F)(F)F)cc(CN4CCC(C)(F)CC4)cn3c2=O)cc(C2(Cc3nncn3C)COC2)c1 [Compound 121],< 0.1
13,"C[C@H]1CCCN(Cc2cc(C(F)(F)F)c3cn(-c4cccc([C@]5(c6nncn6C)C[C@H](O)C5)c4)c(=O)n3c2)C1 (single isomer, unassigned) [Compound 301]",0.1 to 0.3
14,"C[C@H]1CCCN(Cc2cc(C(F)(F)F)c3cn(-c4cc(C#N)cc([C@@H](c5nncn5C)C5CCC5)c4)c(=O)n3c2)C1 (single isomer, unassigned) [Compound 288]",< 0.1
15,Cc1c[nH]nc1[C@@H](c1cccc(-n2cc3c(C(F)(F)F)cc(CN4CCO[C@H](C)C4)cn3c2=O)c1)C1COC1 [Compound 268],> 10
16,"CN1CCCCC1c1cc(C(F)(F)F)c2cn(-c3cccc(C4(Cc5nncn5C)COC4)c3)c(=O)n2c1 (single isomer, unassigned) [Compound 186]",0.1 to 0.3

# Same assay, conditions: second part of Table 2 (head 'Patent Cmpd No / Updated Activity'); same CBL-B TR-FRET IC50 bins A-F; read-out: Updated Activity
row,SMILES,IC50 [µM]
1,"C[C@H]1CCCN(Cc2cc(C(F)(F)F)c3cn(-c4cccc([C@H](c5nncn5C(F)F)C5CCC5)c4)c(=O)n3c2)C1 (single isomer, unassigned) [Compound 462]",> 10
2,Cn1cnnc1[C@@H](c1cccc(-n2cc3c(C(F)(F)F)cc(CN4NC(=O)CC45COC5)cn3c2=O)c1)C1CCC1 [Compound 561],< 0.1
3,"CNC(=O)Cc1cc([C@@H](c2nncn2C)C2CCC2)cc(-n2cc3c(C(F)(F)F)cccn3c2=O)c1 (single isomer, unassigned) [Compound 537]",> 10
4,"C[C@H]1CN(Cc2cc(C(F)(F)F)c3cn(-c4cccc(C5(c6nncn6C)CC6(CC6)C5)c4)c(=O)n3c2)CCC1(F)F (single isomer, unassigned) [Compound 465]",< 0.1
5,COC1CCN(Cc2cc(C(F)(F)F)c3cn(-c4cccc([C@H](c5nncn5C)C5COC5)c4)c(=O)n3c2)CC1 [Compound 415],< 0.1
6,Cn1cnnc1[C@@H](c1cccc(-n2cc3c(C(F)(F)F)cc(CN4CCC5(CCO5)CC4)cn3c2=O)c1)C1CCC1 [Compound 524],< 0.1
7,[2H]C([2H])(c1cc(C(F)(F)F)c2cn(-c3cccc([C@H](c4nncn4C)C4CCC4)c3)c(=O)n2c1)N1CCC[C@H](C)C1 [Compound 487],< 0.1
8,"Cc1cn(CC#N)nc1[C@H](c1cccc(-n2cc3c(C(F)(F)F)cc(CN4CCC[C@H](C)C4)cn3c2=O)c1)C1CCC1 (single isomer, unassigned) [Compound 420]",> 10
9,COC(=O)N(C)Cc1cc(C(F)(F)F)c2cn(-c3cccc([C@H](c4nncn4C)C4CCC4)c3)c(=O)n2c1 [Compound 469],< 0.1
10,"Cn1cnnc1[C@@H](c1cc(-c2ccns2)cc(-n2cc3c(C(F)(F)F)cccn3c2=O)c1)C1CCC1 (single isomer, unassigned) [Compound 459]",> 10
11,C[C@@H]1CN(Cc2cc(C(F)(F)F)c3cn(-c4cccc(C5(c6nncn6C)CCC5)c4)c(=O)n3c2)CCO1 [Compound 432],> 10
12,"C[C@H]1CCCN(Cc2cc(C(F)(F)F)c3cn(-c4cccc([C@H](c5nncn5C)C5(O)CCC5)c4)c(=O)n3c2)C1 (single isomer, unassigned) [Compound 474]",< 0.1
13,"Cn1cnnc1[C@@H](c1cc(C#N)cc(-n2cc3c(C(F)(F)F)cc(CN4CCC(C)(F)CC4)cn3c2=O)c1)C1CCC1 (single isomer, unassigned) [Compound 508]",< 0.1
14,COC(=O)CCN(C)Cc1cc(C(F)(F)F)c2cn(-c3cccc([C@H](c4nncn4C)C4CCC4)c3)c(=O)n2c1 [Compound 596],< 0.1
15,Cn1cnnc1[C@@H](c1cccc(-n2cc3c(C(F)(F)F)cc(CN4CCC[C@](C)(O)C4)cn3c2=O)c1)C1CCC1 [Compound 568],< 0.1
16,"C[C@H]1CCCN(Cc2cc(C(F)(F)F)c3cn(-c4cccc([C@@H](CC5(C#N)CC5)c5nncn5C)c4)c(=O)n3c2)C1 (single isomer, unassigned) [Compound 405]",> 10
17,C[C@H](c1cc(C(F)(F)F)c2cn(-c3cccc([C@H](c4nncn4C)C4CCC4)c3)c(=O)n2c1)N(C)Cc1cncs1 [Compound 610_P1],< 0.1
18,"CC(=O)N1CC[C@H](c2cc(C(F)(F)F)c3cn(-c4cccc([C@H](c5nncn5C)C5CCC5)c4)c(=O)n3c2)C1 (single isomer, unassigned) [Compound 421]",< 0.1
19,"CNC(=O)CCc1cc([C@@H](c2nncn2C)C2CCC2)cc(-n2cc3c(C(F)(F)F)cccn3c2=O)c1 (single isomer, unassigned) [Compound 558]",> 10
20,"COC(=O)N1CCC[C@@H](c2cc(C(F)(F)F)c3cn(-c4cccc([C@H](c5nncn5C)C5CCC5)c4)c(=O)n3c2)C1 (single isomer, unassigned) [Compound 394]",0.1 to 0.3
21,C[C@@H]1COCCN1Cc1cc(C(F)(F)F)c2cn(-c3cccc([C@H](c4nncn4C)C4CCC4)c3)c(=O)n2c1 [Compound 489],< 0.1
22,"CO[C@]1(C)C[C@H]([C@H](c2cccc(-n3cc4c(C(F)(F)F)cc(CN5CCC[C@H](C)C5)cn4c3=O)c2)c2nncn2C)C1 (single isomer, unassigned) [Compound 529]",> 10
23,[2H]C([2H])(c1cc(C(F)(F)F)c2cn(-c3cccc([C@H](c4nncn4C)C4CCC4)c3)c(=O)n2c1)N1CCC2(CC2)C1 [Compound 505],< 0.1
24,"Cn1cnnc1[C@@H](c1cc(-c2ccncc2)cc(-n2cc3c(C(F)(F)F)cccn3c2=O)c1)C1CCC1 (single isomer, unassigned) [Compound 446]",> 10
